Experimental data: paper PMC10154249, “Unique progerin C-terminal peptide ameliorates Hutchinson–Gilford progeria syndrome phenotype by rescuing BUBR1” (Nature Aging, 2023)
Numbered stars: 1 amine (or outer) side, 2 acyl side, 3 side chain; on linkers, the order of the positions; unused ones are H or OH. Bridge positions count the residues as written; N and C are the ends. Square brackets hold non-standard residues; d marks the D form. Peptide text beside a SMILES is read from it. I, II: the chains in the order shown. Actinocin(9to1) = Cc1c2oc3c(C)ccc(C(=O)[*:1])c3nc-2c(C(=O)[*:2])c(N)c1=O; NMeV = CN[C@H](C(=O)O)C(C)C; Sar = CNCC(=O)O

Tests used:
IMR90 cells [1] = assay: SA-β-gal staining of IMR90 cells (progerin, BUBR1, shBUBR1); type: cell-based, human; settings: Fig.1i
Method: (§1) SA-β-gal staining was performed as previously described. Cells were fixed in 0.5% glutaraldehyde for 15 min at room temperature, washed three times with PBS (pH 6.0) containing 1 mM MgCl2 and exposed overnight 37 °C to containing 1 mg ml^–1 5-bromo-4-chloro-3-indolyl-β-D-galactopyranoside (MCE, catalog no. HY-15934), 0.12 mM potassium ferrocyanide (Sigma, catalog no. P3289), 0.12 mM potassium ferricyanide (Sigma, catalog no. P8131) and 1 mM MgCl2 PBS buffer (pH 6.0). Cells were washed three times with H2O and observed under a microscope (OLYMPUS CKX53). SA-β-gal positive cells were quantified by investigators who were blinded to the identity of the analyzed cell.

[2] = system: IMR90 and HGADFN003 cells; assay: Metaphase chromosome spread assay, aneuploid cells; type: cell-based, human
Method: For the metaphase chromosome spread assay, 1.5 × 10^6 cells were seeded in a 6 cm dish and incubated for 24 h with fresh medium. Then, colchicine was added to a final concentration of 0.2 μg ml^–1 and the cells were incubated at 37 °C for 2 h. After digestion, we collected and rinsed the cells with PBS. The cells were centrifuged at 160g for 10 min. Then, 1 M KCl was added to a final concentration of 0.075 mol l^–1 and the samples were incubated at 37 °C for 20 min. The cells were centrifuged, and the supernatant aspirated. The pellet was resuspended, and 1 ml methanol:glacial acetic acid (3:1) solution was added. The sample was rested at room temperature for 10 min. Then, the cells were centrifuged at 160g for 10 min. The supernatant was aspirated, and the pellet resuspended in 1 ml fixative for 30 min. The cells were centrifuged and the pellet was suspended in 1 ml fixative again for 30 min. The cells were centrifuged at 160g for 10 min and the supernatant aspirated. The pellet was then resuspended in a small volume of fixative (typically less than 500 μl) until the cell suspension appeared lightly milky. A small quantity of the cell suspension was held vertically in a pipette with the end about 10 cm above the slide. A single drop was released from this height onto the slide and allowed to air dry. The cells were then incubated with 500 nM of DAPI (Invitrogen) for 10 min. Slides were examined with an Olympus BX53 fluorescence microscope and the images were captured by using the Olympus IPP v.7.0 software. Aneuploid cells were quantified by investigators who were blinded to the identity of the analyzed cell.

HGADFN003 cells [3] = assay: Ki67 immunofluorescence of HGADFN003 cells; type: cell-based, human; settings: Fig.1o, HGADFN003, Vector 45, 38, 49, P=0.0031
Method: (§2) Immunofluorescence was performed as described previously. Cells were plated on cover slips in 12-well plates, left overnight before the treatment. Cells were fixed in 1% formaldehyde in culture medium for 10 min at 37 °C and permeabilized with 0.2% Triton X-100 in PBS for 10 min at room temperature. Cells were washed twice in PBS and blocked for 1 h with 5% BSA in PBS and then incubated with primary antibodies at 4 °C overnight, washed three times in PBS and incubated with secondary antibodies for 1 h at room temperature. Cell nuclei were counterstained with a 500 nM concentration of 4,6-diamidino-2-phenylindole (DAPI) (Sigma). Images were acquired by a fluorescence microscope (OLYMPUS FV-1000, Carl Zeiss LSM880 or Leica DMi8) and analyzed with software NIS-Elements AR v.5.0.1 (Nikon), FLUOVIEW v.4.2b (OLYMPUS), ZEN v.2.3 SP1 (Carl Zeiss) and Leica Application Suite X v.3.6.0.24 (Leica). Cells were quantified by investigators who were blinded to the identity of the analyzed cell.

HGADFN003 cells [4] = assay: SA-β-gal staining of HGADFN003 cells; type: cell-based, human; settings: Fig.1m, HGADFN003, Vector 65, 68, 69, 65, P<0.0001
Method: as §1

IMR90 cells [5] = assay: Ki67 immunofluorescence of IMR90 cells; type: cell-based, human; settings: Fig.1k, IMR90
Method: as §2

[6] = system: progerin–BUBR1 interaction; assay: CoIP of progerin and BUBR1 in HEK-293T cells; type: cell-based; settings: HEK-293T co-transfected with truncated mutants and HA-progerin
Method: Detailed descriptions of CoIP were described previously[55],[56]. Cells were harvested and washed three times in cold PBS, then lysed in CoIP buffer (25 mM Tris-HCl (pH 7.5), 150 mM KCl, 5 mM EDTA, and 0.5% NP-40) plus protease inhibitor cocktail tablet (Roche). Incubate on ice and shock lysates on the vortex shaker 15 times for 30 s each. Microcentrifuge in 12,000g for 15 min at 4 °C, collect the supernatant, and incubate with 3 μg primary antibodies with gentle shaking overnight at 4 °C, followed by adding 20–40 μl Pure Proteome Protein A/G Mix Magnetic Beads (Millipore, catalog no. […]02) for 3 h. Wash the beads three times with 1 ml CoIP buffer for 8 min each, resuspend in 50 μl 1× loading buffer, and incubate at 100 °C for 8 min. Throw beads away and analyze by immunoblotting.

BUBR1 mRNA = BUBR1 mRNA stability assay with Actinomycin D; type: cell-based, human; settings: Fig. 4h, +Act D (shCtrl+Act D or shPTBP1#1+Act D), shCtrl = 1
Method: RNA preparation was performed as described. Total RNA was extracted using Trizol reagent (TaKaRa) following the manufacturer’s instructions. cDNA was generated with M-MLV reverse transcriptase (Promega, catalog no. M170B). Reverse transcription with PCR (RT-PCR) was performed with SYBR Green Real-Time PCR Master Mix (TaKaRa). RT-PCR was carried out on a QuantStudio 3 Real-Time-PCR Instrument (ABI). Data were analyzed and further processed in QuantStuido Design and Analysis Software and GraphPad Prism v.7. Fold change in gene expression over control samples was calculated using the 2^–ΔΔCt method, where β-actin Ct values were used as an internal control. The primer sequences for PCR, synthesized by Comate Bioscience, were as follows: […]

BUBR1
Relative percentage of SA-β-gal positive cells (IMR90 cells [1]; Vector 2, 1, 2, P vs Vector: BUBR1 0.2302, progerin 0.0003, replicate 1): 3%
Relative percentage of SA-β-gal positive cells (IMR90 cells [1]; Vector 2, 1, 2, P vs Vector: BUBR1 0.2302, progerin 0.0003, replicate 2): 2%
Relative percentage of SA-β-gal positive cells (IMR90 cells [1]; Vector 2, 1, 2, P vs Vector: BUBR1 0.2302, progerin 0.0003, replicate 3): 2%
Relative percentage of SA-β-gal positive cells (IMR90 cells [1]; progerin+BUBR1, P=0.0026 vs progerin, replicate 1): 15%
Relative percentage of SA-β-gal positive cells (IMR90 cells [1]; progerin+BUBR1, P=0.0026 vs progerin, replicate 2): 18%
Relative percentage of SA-β-gal positive cells (IMR90 cells [1]; progerin+BUBR1, P=0.0026 vs progerin, replicate 3): 20%
Relative percentage of aneuploid cells ([2]; Fig.1p, IMR90, Vector 6, 5, 8, replicate 1): 5%
Relative percentage of aneuploid cells ([2]; Fig.1p, IMR90, Vector 6, 5, 8, replicate 2): 5%
Relative percentage of aneuploid cells ([2]; Fig.1p, IMR90, Vector 6, 5, 8, replicate 3): 7%
Relative percentage of aneuploid cells ([2]; Fig.1p, IMR90, progerin+BUBR1, replicate 1): 25%
Relative percentage of aneuploid cells ([2]; Fig.1p, IMR90, progerin+BUBR1, replicate 2): 17%
Relative percentage of aneuploid cells ([2]; Fig.1p, IMR90, progerin+BUBR1, replicate 3): 22%
Relative percentage of aneuploid cells ([2]; Fig.1q, HGADFN003, Vector 29, 35, 32, P=0.0053, replicate 1): 21%
Relative percentage of aneuploid cells ([2]; Fig.1q, HGADFN003, Vector 29, 35, 32, P=0.0053, replicate 2): 17%
Relative percentage of aneuploid cells ([2]; Fig.1q, HGADFN003, Vector 29, 35, 32, P=0.0053, replicate 3): 14%
Relative percentage of Ki67 positive cells (HGADFN003 cells [3]; replicate 1): 78%
Relative percentage of Ki67 positive cells (HGADFN003 cells [3]; replicate 2): 74%
Relative percentage of Ki67 positive cells (HGADFN003 cells [3]; replicate 3): 67%
Relative percentage of SA-β-gal positive cells (HGADFN003 cells [4]; replicate 1): 48%
Relative percentage of SA-β-gal positive cells (HGADFN003 cells [4]; replicate 2): 49%
Relative percentage of SA-β-gal positive cells (HGADFN003 cells [4]; replicate 3): 50%
Relative percentage of SA-β-gal positive cells (HGADFN003 cells [4]; replicate 4): 42%
Relative percentage of Ki67 positive cells (IMR90 cells [5]; Vector 67, 75, 60, P vs Vector: BUBR1 0.803, progerin 0.0018, replicate 1): 64%
Relative percentage of Ki67 positive cells (IMR90 cells [5]; Vector 67, 75, 60, P vs Vector: BUBR1 0.803, progerin 0.0018, replicate 2): 78%
Relative percentage of Ki67 positive cells (IMR90 cells [5]; Vector 67, 75, 60, P vs Vector: BUBR1 0.803, progerin 0.0018, replicate 3): 65%
Relative percentage of Ki67 positive cells (IMR90 cells [5]; progerin+BUBR1, P=0.0042 vs progerin, replicate 1): 48%
Relative percentage of Ki67 positive cells (IMR90 cells [5]; progerin+BUBR1, P=0.0042 vs progerin, replicate 2): 51%
Relative percentage of Ki67 positive cells (IMR90 cells [5]; progerin+BUBR1, P=0.0042 vs progerin, replicate 3): 45%

progerin-C36: truncated progerin-C, aa residues 579–614, used for the design of UPCP (YNLRSRTVLCGTCGQPADKASASGSGAQSPQNCSIM)
block of progerin–BUBR1 binding by truncated progerin-C [6]: could block the binding of progerin and BUBR1

Cc1c2oc3c(C)ccc(C(=O)N[C@@H]4C(=O)N[C@H](C(C)C)C(=O)N5CCC[C@H]5C(=O)N(C)CC(=O)N(C)[C@@H](C(C)C)C(=O)O[C@@H]4C)c3nc-2c(C(=O)N[C@@H]2C(=O)N[C@H](C(C)C)C(=O)N3CCC[C@H]3C(=O)N(C)CC(=O)N(C)[C@@H](C(C)C)C(=O)O[C@@H]2C)c(N)c1=O [ActD] (I: T[dV]P[Sar][NMeV] / II: T[dV]P[Sar][NMeV]; ester I:1-I:C, II:1-II:C; linker I:N-II:N via Actinocin(9to1))
BUBR1 relative (to β-actin) mRNA level (2-ΔΔCt) (BUBR1 mRNA; replicate 1): 0.6794
BUBR1 relative (to β-actin) mRNA level (2-ΔΔCt) (BUBR1 mRNA; replicate 2): 0.7373
BUBR1 relative (to β-actin) mRNA level (2-ΔΔCt) (BUBR1 mRNA; replicate 3): 0.615
